# Test results as given in patent US20130116185A1, “PHOSPHATIDYLINOSITOL 3-KINASES ACTIVITY REGULATOR INCLUDING THE FIFTH ZINC FINGER DOMAIN OF FOG2” (SNU R&DB FOUNDATION, priority 2010, published 2013).
# Entries after “also recorded” stand apart in the source; their conditions may differ.
# Columns and labels:
# [1] = tested on: MDA MB 231 cells; test: Cell proliferation MTT assay; format: cell-based
# Method: Because the PI3K activation is critical in cell growth, the cell proliferation was analyzed to investigate the inhibitory effect of the FOG2 zinc finger domain using the MTT assay.
# MDA MB 231 cells were seeded in a 96-well plate, and transfected with 100 ng DNA of pCKflag, FOG2-wt, FOG2-ZF-5-m or FOG2-ZF-6-m using Lipofectamine 2000. On 3 days post-transfection, the MTT assay was performed.
# MDA MB 231 cells (2×10^3 cells) were seeded in a 96-well plate and treated with 4 μM each peptide for 3 days. After the treatment, 50 μl of MTT solution (2 mg/ml) was added to each well, incubated at 37° C. for 1 hr. Then, 150 μl of DMSO was added to each well and the absorbance value of each well was measured at 590 nm using a microplate reader.
# [2] = tested on: Akt; test: Akt phosphorylation by Western blot in Hep3B cells treated with peptide and IGF-1; format: cell-based; conditions: 4 μM peptide 2 days, serum-free 24 hr, IGF-1 30 min, FIG. 2D
# Method: To test whether the Akt activity induced by IGF-1 treatment is inhibited by the synthesized peptides, Hep3B cells were incubated with IGF-1 and ZF-5-wt-24 […] and the expressions of Akt and pAkt were analyzed.
# Hep3B cells were incubated with 4 μM ZF-5-wt-24 for 2 days and then further incubated in a serum-free media for 24 hr. Afterwards, the cells were incubated with IGF-1 for 30 min and subject to the Western blot analysis. Mock (DMSO) was used as a control.
# [3] = tested on: MDA MB 231 cells; test: Cell migration, modified Boyden chamber method; format: cell-based; conditions: 4 μM peptide, 2 days of treatment, 18 hr migration, FIG. 3B
# Method: MDA MB 231 cells were transfected with pCK-flag (control), FOG2-wt (wild type) and FOG2 mutants having modified zinc finger domain (FOG2-ZF-5-m and FOG2-ZF-6-m). The cell migration was then analyzed using the modified Boyden chamber method (Albini A et al., Cancer Res 1987 47:3239-45). Following the transfection for 24 hr, MDA MB 231 cells (1×10^5) were suspended in a serum-free medium and seeded in triplicate in the upper part of BD chamber ([…] pore size). The lower part was filled with the serum-free medium. Following the incubation at 37° C. for 18 hr, non-migrating cells positioned at the upper surface of filters were cleaned with a cotton swab. The migrating cells passing through the lower surface of filters were fixed with 70% ethanol and treated with the Giemsa staining solution for 50 min. Then, the cells were rinsed with water and observed under a microscope. The cell migration rate was determined by counting the number of cells present in randomly-selected six sections and the migration range was expressed as the average number of cells per a microscopic field.
# MDA MB 231 cells were incubated with 4 μM Mock (control, DMSO), 4 μM ZF-5-wt-24, 4 μM ZF-5-m-24, 4 μM ZF-5-wt-20 or 4 μM ZF-3-wt-21. After treatment, the cell migration was analyzed using the modified Boyden chamber method (Albini A et al., Cancer Res 1987 47:3239-45). After 2 days of treatment, MDA MB 231 cells (1×10^5) were suspended in the serum free medium and seeded in triplicate in the upper part of BD chamber ([…] pore size). The lower part was filled with the serum free medium. Following the incubation at 37° C. for 18 hr, non-migrating cells positioned at the upper surface of filters were cleaned with the cotton swab. The migrating cells passing through the lower side surface of filters were fixed with 70% ethanol and stained using the Giemsa stain method. The cell migration rate was determined by counting the number of cells present in randomly-selected six sections and the migration range was expressed as the average number of cells per a microscopic field.
# [4] = tested on: HCT116 cells; test: Colony formation assay in 0.3% agar; format: cell-based; conditions: synthesized peptide, one week, colonies over 1 mm counted, FIG. 3C
# Method: HCT116 cells (1×10^3) were trypsinized and seeded in triplicate in a six-well plate. The serum-free medium containing the synthesized peptide in <Example 3> and 0.3% agar was incubated with the cells. One week after treatment, the generated colony was visualized with 0.5 mg/ml NBT (Nitro blue tetrazolium chloride) and the colonies over 1 mm in diameter were counted.
# [5] = tested on: MDA MB 231 cells; test: Apoptosis by FACS analysis (propidium iodide) in MDA MB 231 cells; format: cell-based; conditions: synthesized peptides, FIG. 7C
# Method: PI3K inactivation has been reported to cause cancer cell apoptosis, and FOG2 is known to inhibit the PI3K activity. To test whether PI3K inactivation by overexpressing FOG2 induces apoptosis, MDA MB 231 cells overexpressed FOG2 were analyzed with FACS.
# MDA MB 231 cells were incubated with Full-FOG2[1-1151], FOG2[1-412], FOG2[413-789] or FOG2[802-1151]. The cells (5×10^4) were seeded in a 12-well plate and transfected with 1 μg of Full-FOG2[1-1151], FOG2[1-412], FOG2[413-789] or FOG2[802-1151] using Lipofectamine 2000. The cells were incubated at 37° C. for 2 days and subject to FACS analysis.
# The cells were incubated with FOG2 fragments and fixed with 70% ethanol for 16 hr. The fixed cells were stained using RNase (5 mg/ml) and propidium iodide ([…]). The amount of DNA in stained cells was analyzed with Cell Quest program of FACS caliber (Becton Dickinson).
# [6] = tested on: MCF 7; test: Apoptosis by FACS analysis in MCF7 cells; format: cell-based; conditions: synthesized peptides, FIG. 7D
# Source text: FIG. 7D is a graph showing the apoptotic effect by synthesized zinc finger domain peptides of FOG2 in MCF7 cells according to FACS analysis;
# [7] = target: T1, PI3K (Homo sapiens, UniProt P27986); test: PI3K activity in MDA MB 231 cells incubated with zinc finger domain peptides; format: cell-based; parameters: The cell lysates were immunoprecipitated with p85α (sc-1637, Santa Cruz) and Protein G-Sepharose beads; endogenous in cells; conditions: synthesized peptides, FIG. 5
# Method: (§1) For measurement of PI3K activity, 10 μl of sonicated PIP2 (1 μg/μl, Calbiochem), 10 μl of 100 mM MgCl2 and 1 μl of [-^32P]ATP (500 μCi/ml) were added to the kinase buffer (10 mM Tris-HCl (pH 7.4), 150 mM NaCl, 1 mM Na3VO4, 10 mM ZnCl2) and incubated at 37° C. for 30 min. After incubation, 20 μl of 6 N HCl was added to stop the reaction and PIP2 was extracted by treatment with 200 μl of methanol:chloroform (1:1) solution. The amount of radioactively labeled PIP2 in the extract was measured using a scintillator counter.
# For peptide treatment, cells were trypsinized to detach them from a culture dish and their aliquot (2×10^5 cells) was incubated with 4 μM peptides in 100 mm dishes. The control was incubated with Mock (DMSO).
# [8] = target: T1, PI3K; test: In vitro competition analysis (PI3K immunoprecipitated from 293T cell lysates with p85α antibody plus peptides); format: biochemical; parameters: The cell lysates were immunoprecipitated with p85α (sc-1637, Santa Cruz) and Protein G-Sepharose beads; endogenous in cells; conditions: peptides 1 μM, 5 μM and 10 μM, dose-dependent, compared with ZF-3-wt-21, FIG. 2B
# Method: The in vitro competition analysis was performed by PI3K immunoprecipitation in 293T cells. The activated PI3K was extracted from the 293T cell lysates by immunoprecipitating with p85α antibody simultaneously with addition of the synthesized peptides (1 μM, 5 μM and 10 μM). The PI3K activation was induced as described above.
# [9] = target: T1, PI3K; test: IGF-1-induced PI3K activation in Hep3B cells incubated with peptides; format: cell-based; parameters: The cell lysates were immunoprecipitated with p85α (sc-1637, Santa Cruz) and Protein G-Sepharose beads; endogenous in cells; host or cells: Hep3B; conditions: 4 μM peptides, 48 hr, FIG. 2C
# Method: as §1
# In addition, Hep3B liver cancer cells were incubated with 4 μM peptides for 48 hr and the PI3K activity was analyzed.
# T1 sequence (P27986 whole entry, the tested form may be a part): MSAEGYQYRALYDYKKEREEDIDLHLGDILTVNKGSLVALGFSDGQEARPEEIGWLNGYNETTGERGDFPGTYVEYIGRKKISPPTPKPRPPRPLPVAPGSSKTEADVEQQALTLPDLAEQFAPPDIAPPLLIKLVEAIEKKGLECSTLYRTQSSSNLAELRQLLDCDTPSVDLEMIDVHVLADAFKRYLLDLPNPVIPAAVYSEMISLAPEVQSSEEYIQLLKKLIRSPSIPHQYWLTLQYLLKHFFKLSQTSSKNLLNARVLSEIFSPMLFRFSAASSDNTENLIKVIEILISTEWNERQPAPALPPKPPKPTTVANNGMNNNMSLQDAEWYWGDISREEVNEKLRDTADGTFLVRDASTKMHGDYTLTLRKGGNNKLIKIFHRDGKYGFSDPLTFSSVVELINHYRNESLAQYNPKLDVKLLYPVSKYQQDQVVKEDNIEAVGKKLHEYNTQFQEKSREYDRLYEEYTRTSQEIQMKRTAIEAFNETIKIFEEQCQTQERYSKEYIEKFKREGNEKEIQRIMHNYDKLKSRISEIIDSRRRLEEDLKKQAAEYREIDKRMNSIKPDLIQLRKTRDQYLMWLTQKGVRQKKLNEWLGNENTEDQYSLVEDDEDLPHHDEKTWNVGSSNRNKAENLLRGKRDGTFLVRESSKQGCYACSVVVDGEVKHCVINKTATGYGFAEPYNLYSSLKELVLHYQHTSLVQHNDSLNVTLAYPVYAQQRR
substance,measurement,setting,value
ZF-5-wt-24: The peptide comprising a portion of the fifth zinc finger domain of FOG2 (24 amino acids); residues 547-570 (GATCFECNITFNNLDNYLVHKKHY),reduction of cell proliferation,[1]; 4 μM peptide for 3 days,about 40%
same,inhibitory effect on cell proliferation,"[1]; synthesized peptide, increasing concentration, FIG. 6B",reduces the cancer cell proliferation; also recorded: became more prominent as ZF-5-wt-24 concentration increased
same,Akt phosphorylation induced by IGF-1 stimulation,[2],reduced
same,reduction of cell migration,[3],reduce the cell migration
same,number of colonies / colony formation,[4],reduces the colony formation; also recorded: reduced
same,apoptosis,[5],promoted apoptosis
same,apoptosis,[6],promoted apoptosis
same,PI3K activity,[7],decrease PI3K activity
same,reduction of PI3K activity,[8],about 40%
same,IGF-1-induced PI3K activation,[9],inhibited
